Source: patent US9403866B2, “Compositions and methods for increasing telomerase activity” (Telomerase Activation Sciences, Inc., priority 2009, dated 2016)

Key:
[1] = parameters: species or system male Beagle dogs; conditions: male, Beagle, dog, in vivo, po, 10 mg/kg
Method: The plasma level of a compound following a single intravenous and oral administration in male Beagle dogs was determined. Plasma samples were collected and used to determine the plasma concentration of the compound and metabolites. In addition tissue samples, including whisker samples and PBMC cells were collected for telomerase activity analysis.
Male Beagle dogs were divided into treatment groups according to Table 5. The dogs were provided ad libitum SLAC-MO1 #W080701 (Shanghai Laboratories Animal Center, Shanghai, China) throughout the in-life portion of the study with the exception of the overnight fasting period prior to oral dosing. Water was available ad libitum.
The compounds were dissolved in 2% EtOH/98% water […] to yield a final concentration of 2.5 mg/ml and 1 mg/ml for both intravenous and oral administration, respectively. The concentration of each compound was confirmed by HPLC analysis.
Doses were administered intravenously via the left femoral vein and then by oral dosing one week later. Body weights were taken on the day of dose administration. Dose volume was determined based on individual body weight taken on day of dosing.
Blood samples (approximately 250 μL) were collected via right femoral vein into tubes containing K2-EDTA anticoagulant and 1 mg/ml NaF at appropriate time points. Blood was stored on ice and then plasma separated via centrifugation (8000 rpm×6 minutes). The plasma was stored at […] until LC-MS/MS analysis.

telomerase = molecular target: T1, telomerase (Mus musculus, UniProt O70372); assay: Telomerase activity in short-term liquid culture, lineage-depleted bone marrow cells from mTERT heterozygous mice; assay type: cell-based; conditions: 1 uM, three days
T1 construct: endogenous in cells; host or cells: lineage-depleted bone marrow cells, wild-type mice
T1 sequence (O70372 1-1122): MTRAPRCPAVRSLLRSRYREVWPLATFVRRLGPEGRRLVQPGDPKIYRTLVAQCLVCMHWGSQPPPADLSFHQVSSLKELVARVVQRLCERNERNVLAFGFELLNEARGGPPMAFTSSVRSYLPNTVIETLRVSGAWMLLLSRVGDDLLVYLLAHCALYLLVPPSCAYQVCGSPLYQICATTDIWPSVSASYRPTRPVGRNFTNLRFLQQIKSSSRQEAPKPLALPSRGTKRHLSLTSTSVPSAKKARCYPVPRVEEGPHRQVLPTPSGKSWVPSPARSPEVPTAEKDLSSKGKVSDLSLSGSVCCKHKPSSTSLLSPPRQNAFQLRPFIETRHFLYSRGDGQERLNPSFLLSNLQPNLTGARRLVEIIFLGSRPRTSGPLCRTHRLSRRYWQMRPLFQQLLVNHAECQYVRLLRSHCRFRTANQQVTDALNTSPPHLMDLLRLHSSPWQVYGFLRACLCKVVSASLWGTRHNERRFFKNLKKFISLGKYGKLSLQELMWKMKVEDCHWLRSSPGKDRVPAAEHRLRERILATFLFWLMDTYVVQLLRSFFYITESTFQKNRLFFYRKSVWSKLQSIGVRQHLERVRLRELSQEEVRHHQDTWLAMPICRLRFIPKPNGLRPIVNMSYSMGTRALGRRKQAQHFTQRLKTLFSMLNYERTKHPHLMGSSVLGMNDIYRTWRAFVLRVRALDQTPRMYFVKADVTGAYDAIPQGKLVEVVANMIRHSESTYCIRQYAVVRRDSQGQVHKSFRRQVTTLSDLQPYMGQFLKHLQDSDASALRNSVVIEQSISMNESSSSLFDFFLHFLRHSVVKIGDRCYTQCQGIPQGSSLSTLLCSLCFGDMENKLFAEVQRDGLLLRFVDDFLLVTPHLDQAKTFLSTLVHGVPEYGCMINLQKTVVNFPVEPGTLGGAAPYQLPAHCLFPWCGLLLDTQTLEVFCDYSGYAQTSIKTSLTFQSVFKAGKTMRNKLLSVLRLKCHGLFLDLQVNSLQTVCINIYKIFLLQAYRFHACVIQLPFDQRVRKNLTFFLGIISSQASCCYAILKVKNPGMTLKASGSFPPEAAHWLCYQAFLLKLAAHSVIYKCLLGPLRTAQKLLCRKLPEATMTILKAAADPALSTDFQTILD
Method: Lineage-depleted bone marrow cells from mTERT heterozygous and wild type mice were grown in IMDM+15% FBS containing stem cell factor (Kitl), IL-3, and IL-11 for three days in the presence of compound 4 (1 uM, 100 nM, or 10 nM), vehicle (0.1% DMSO), or nothing. Telomerase activity in the wild-type cells increased by 40-50% when treated with 100 nM and 1 uM compound 4, relative to the vehicle-treated control.
Telomerase activity in the mTERT heterozygous cells increased by 50% when treated with 1 uM compound 4, relative to the vehicle-treated control.

[2] = tested on: mTERT heterozygous mouse lineage-depleted bone marrow cells; assay: Colony formation assay of mTERT heterozygous mouse lineage-depleted bone marrow cells; assay type: cell-based; conditions: 12 days
Method: mTERT heterozygous mouse lineage-depleted bone marrow cells were plated into a standard colony formation assay in the presence of compound 4 (100 nm and 500 nM), vehicle (0.1% DMSO), or nothing. After 12 days, hematopoietic colonies were enumerated (BFU-E, CFU-GM, and CFU-GEMM). Total colony counts were: untreated, 67; vehicle-treated, 64; 100 nM compound 4, 68; and 500 nM compound 4, 77.

Matrigel plugs = assay: Administration to BALB/c mice: total RNA and capillary density in Matrigel plugs; assay type: in vivo; conditions: 10 mg/kg/day PO (BID)
Method: BALB/c mice (2-3 months) were dosed with compound 4 in 2% ethanol at 10 mg/kg/day PO (BID). Mice were pre-dosed for 1 day (Day −1). Matrigel™ (BDBiosciences, California) was injected subcutaneously in the abdomen on Day 0, and the Matrigel™ plugs were harvested on Day 12.
Total RNA, which reflects cell number, was increased 1.6-fold (p<0.2) n=5/group in Matrigel™ plugs after treatment with compound 4.
The other half of the Matrigel™ plug was used for histology and CD31 immunostaining to analyze capillary density (CD31 is a marker for endothelial cells, which line the capillaries). A 1.3-fold increase in capillary density in (CD-31 immuno staining) (p<0.5) n=5/group was observed after treatment with compound 4.

SAECs = assay: Long-term replicative capacity of SAECs in continuous culture; assay type: cell-based, human; conditions: 0.1 μM, 60 days continuous culture
Method: SAECs were treated continuously with 0.1 μM of compound 4 in a final concentration of 0.004% ethanol for 60 days in continuous culture. Compound 4 increased the long-term replicative capacity of SAECs by about 2 population doublings (4× increase in calculated cell number).

lung fibroblasts = assay: Alamar Blue Proliferation Assay in lung fibroblasts; assay type: cell-based, human; conditions: 3 days
Method: Human SAECs or human fibroblasts were grown in the presence of different concentrations of compound 4 in a final concentration of 1% DMSO in the medium. After 3 days the cells were harvested and proliferation was measured using the Alamar Blue Proliferation Assay.

CC(C)C(N)C(=O)OC1CCC23CC24CCC2(C)C(C5(C)CCC(C(C)(C)O)O5)C(O)CC2(C)C4CC(O)C3C1(C)C (stereo not drawn) [Compound 4, 2-(L)-Amino-3-methyl-butyric acid 6α,16β-dihydroxy-17-[5-(1-hydroxy-1-methyl-ethyl)-2-methyl-tetrahydro-furan-2-yl]-4,4,13,14-tetramethyl-tetradecahydro-cyclopropa[9,10]cyclopenta[a]phenanthren-3β-yl ester]
Bioavailability % F [1]: 47% | Telomerase activity increase relative to the vehicle-treated control (telomerase): 50% | BFU-E colonies ([2]; 100 nM): 22 | CFU-E colonies ([2]; 100 nM): 43 | CFU-GEMM colonies ([2]; 100 nM): 3 | Total colony counts ([2]; 100 nM): 68 | BFU-E colonies ([2]; 500 nM): 27 | CFU-E colonies ([2]; 500 nM): 48 | CFU-GEMM colonies ([2]; 500 nM): 1 | Total colony counts ([2]; 500 nM): 77 | Total RNA (reflects cell number) increase in Matrigel plugs (Matrigel plugs; Day 12, p<0.2): 1.6 fold | increase in capillary density (CD-31 immuno staining) (Matrigel plugs; Day 12, p<0.5): 1.3 fold | increase in calculated cell number (SAECs): 4 × | increase of long-term replicative capacity (SAECs; 0.004% ethanol): about 2 population doublings | effect on short-term proliferation (lung fibroblasts): No effect
